Experimental data reported in PMC5951806, “Rapid labelling and covalent inhibition of intracellular native proteins using ligand-directed N-acyl-N-alkyl sulfonamide” (Nature Communications, 2018).
Several values for one entry are separate records, joined by “and”; a condition that tells them apart may be missing. Equal entries are not always repeated.

Key:
Assay in all cases: TMT LC-MSMS of 11-labelled proteins
Type in all cases: cell-based
[1] = target: Isoform 2 of Heat shock protein HSP 90-alpha (HSP90AA1) (Homo sapiens, UniProt P07900)
[2] = target: T1, Carnitine O-palmitoyltransferase 1, liver isoform (CPT1A) (Homo sapiens, UniProt P50416)
T1 sequence (P50416 1-773): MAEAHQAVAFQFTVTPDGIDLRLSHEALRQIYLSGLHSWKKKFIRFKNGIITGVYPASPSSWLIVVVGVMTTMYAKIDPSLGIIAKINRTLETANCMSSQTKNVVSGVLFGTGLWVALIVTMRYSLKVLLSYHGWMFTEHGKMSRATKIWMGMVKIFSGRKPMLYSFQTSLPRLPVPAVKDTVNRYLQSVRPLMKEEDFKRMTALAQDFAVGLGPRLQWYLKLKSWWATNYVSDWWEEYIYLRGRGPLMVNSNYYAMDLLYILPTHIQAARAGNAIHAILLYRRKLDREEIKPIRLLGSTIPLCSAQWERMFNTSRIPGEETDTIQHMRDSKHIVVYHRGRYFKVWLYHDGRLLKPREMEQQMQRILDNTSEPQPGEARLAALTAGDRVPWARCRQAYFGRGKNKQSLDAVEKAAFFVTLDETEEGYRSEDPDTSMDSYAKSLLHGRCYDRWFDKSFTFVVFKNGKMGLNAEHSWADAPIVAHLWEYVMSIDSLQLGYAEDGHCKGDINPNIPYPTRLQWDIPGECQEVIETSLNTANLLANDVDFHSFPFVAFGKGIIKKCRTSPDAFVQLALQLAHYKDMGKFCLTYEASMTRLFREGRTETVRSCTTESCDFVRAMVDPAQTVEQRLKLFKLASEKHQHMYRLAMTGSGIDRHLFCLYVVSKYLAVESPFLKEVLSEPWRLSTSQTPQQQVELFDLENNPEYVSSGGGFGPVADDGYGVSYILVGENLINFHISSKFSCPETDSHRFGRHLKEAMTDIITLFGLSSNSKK

[3] = target: Tubulin beta-4B chain (TUBB4B) (Homo sapiens, UniProt P68371)
[4] = sheet Exp1, SKBR3 cells, 11 0.5 µM 3 h vs DMSO
[5] = sheet Exp1, SKBR3 cells, 11 0.5 µM 3 h vs with PU-H71 10 µM
[6] = sheet Merged, SKBR3 cells, 11 0.5 µM 3 h vs DMSO
[7] = sheet Merged, SKBR3 cells, 11 0.5 µM 3 h vs with PU-H71 10 µM

Chain of Tubulin beta-4B chain (TUBB4B) (P68371 whole entry): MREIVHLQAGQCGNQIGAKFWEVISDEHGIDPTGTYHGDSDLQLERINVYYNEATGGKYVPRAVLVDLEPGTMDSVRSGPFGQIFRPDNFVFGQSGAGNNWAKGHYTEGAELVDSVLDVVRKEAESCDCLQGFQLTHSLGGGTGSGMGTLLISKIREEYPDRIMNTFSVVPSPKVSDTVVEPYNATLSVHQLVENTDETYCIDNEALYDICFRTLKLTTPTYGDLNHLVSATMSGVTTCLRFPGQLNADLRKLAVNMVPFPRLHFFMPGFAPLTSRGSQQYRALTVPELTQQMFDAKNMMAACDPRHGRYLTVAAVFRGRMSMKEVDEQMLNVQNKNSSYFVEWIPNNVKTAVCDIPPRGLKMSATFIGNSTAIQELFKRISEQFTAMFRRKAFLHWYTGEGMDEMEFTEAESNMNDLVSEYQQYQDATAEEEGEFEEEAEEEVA
Chain of Tubulin beta-4B chain (TUBB4B) (P68363 whole entry partner): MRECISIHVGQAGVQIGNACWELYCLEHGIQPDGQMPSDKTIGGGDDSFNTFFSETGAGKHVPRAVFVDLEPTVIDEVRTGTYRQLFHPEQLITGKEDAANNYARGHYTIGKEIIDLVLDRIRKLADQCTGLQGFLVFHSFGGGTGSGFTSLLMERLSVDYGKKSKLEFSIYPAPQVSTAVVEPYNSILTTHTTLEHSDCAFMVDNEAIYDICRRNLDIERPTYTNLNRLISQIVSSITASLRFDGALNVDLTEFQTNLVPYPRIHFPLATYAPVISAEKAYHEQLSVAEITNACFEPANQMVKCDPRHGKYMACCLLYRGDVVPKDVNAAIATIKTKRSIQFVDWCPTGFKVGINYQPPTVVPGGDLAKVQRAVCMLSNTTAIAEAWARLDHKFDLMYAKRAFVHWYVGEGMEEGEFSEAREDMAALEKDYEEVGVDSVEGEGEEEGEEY

CC(=O)Oc1ccc2c(c1)Oc1cc(OC(C)=O)ccc1C21OC(=O)c2cc(C(=O)NCCOCCOCCNC(=O)CCCC(=O)N(CC#N)S(=O)(=O)c3ccc(C(=O)NCCCn4c(Sc5cc6c(cc5I)OCO6)nc5c(N)ncnc54)cc3)ccc21 [compound 11]
Abundance Ratio: (11) / (11 with PU-H71) ([1]; Exp3, HSP90AA1): 4.154
Abundance Ratio: (11) / (DMSO) ([1]; Exp3, HSP90AA1): 13.53
Abundances (Grouped): 11 ([1]; Exp3, HSP90AA1): 1235.3
Abundances (Grouped): 11 with PU-H71 ([1]; Exp3, HSP90AA1): 297.4
Abundance Ratio: (11) / (DMSO) [1, 4]: 12.472
Abundance Ratio: (11) / (11 with PU-H71) [1, 5]: 3.732
Abundance Ratio: (11) / (11 with PU-H71) ([1]; sheet Exp2, HSP90AA1): 3.971
Abundance Ratio: (11) / (DMSO) ([1]; sheet Exp2, HSP90AA1): 11.996
Abundances (Grouped): 11 ([1]; sheet Exp2, HSP90AA1): 903.3
Abundances (Grouped): 11 with PU-H71 ([1]; sheet Exp2, HSP90AA1): 227.5
Abundance Ratio: (11) / (DMSO) [1, 6]: 13.5 and 13.53
Abundance Ratio: (11) / (11 with PU-H71) [1, 7]: 4.154
Abundance Ratio: (11) / (11 with PU-H71) ([2]; Exp3, CPT1A): 0.719
Abundance Ratio: (11) / (DMSO) ([2]; Exp3, CPT1A): 1.338
Abundances (Grouped): 11 ([2]; Exp3, CPT1A): 20.2
Abundances (Grouped): 11 with PU-H71 ([2]; Exp3, CPT1A, with PU-H71): 28.1
Abundance Ratio: (11) / (DMSO) [2, 4]: 2.506
Abundance Ratio: (11) / (11 with PU-H71) [2, 5]: 0.783
Abundance Ratio: (11) / (DMSO) [2, 6]: 1.461
Abundance Ratio: (11) / (11 with PU-H71) [2, 7]: 0.79
Abundance Ratio: (11) / (11 with PU-H71) ([3]; Exp3, TUBB4B): 1.068
Abundance Ratio: (11) / (DMSO) ([3]; Exp3, TUBB4B): 3.456
Abundances (Grouped): 11 ([3]; Exp3, TUBB4B): 287.5
Abundances (Grouped): 11 with PU-H71 ([3]; Exp3, TUBB4B): 269.1
Abundance Ratio: (11) / (DMSO) [3, 4]: 3.652
Abundance Ratio: (11) / (11 with PU-H71) [3, 5]: 1.046
Abundance Ratio: (11) / (11 with PU-H71) ([3]; sheet Exp2, TUBB4B): 0.891
Abundance Ratio: (11) / (DMSO) ([3]; sheet Exp2, TUBB4B): 2.612
Abundances (Grouped): 11 ([3]; sheet Exp2, TUBB4B): 209.5
Abundances (Grouped): 11 with PU-H71 ([3]; sheet Exp2, TUBB4B): 235
Abundance Ratio: (11) / (DMSO) [3, 6]: 3.477
Abundance Ratio: (11) / (11 with PU-H71) [3, 7]: 1.054
